Experiments:
Type in all cases: cell-based
Z138 cells = assay: MTT cell proliferation assay, Z138 cells; settings: Homo sapiens, Z-138, approximately 64-72 hours, 1 nM to 30 μM
Description: (§1) The MTT cell proliferation assay was used to study the cytotoxic properties of the compounds. The assay was performed according to the method described by Roche Molecular Biochemicals, with minor modifications. The assay is based on the cleavage of the tetrazolium salt, MTT, in the presence of an electron-coupling reagent. The water-insoluble formazan salt produced must be solubilized in an additional step. Cells grown in a 96-well tissue culture plate were incubated with the MTT solution for approximately 4 hours. After this incubation period, a water-insoluble formazan dye formed. After solubilization, the formazan dye was quantitated using a scanning multi-well spectrophotometer (ELISA reader). […] The cells were seeded at 5,000-10,000 cells in each well of 96-well plate in 100 μL of fresh culture medium and were allowed to attach overnight. The stock solutions of the compounds were diluted in 100 μL cell culture medium to obtain eight concentrations of each test compound, ranging from 1 nM to 30 μM. […] All optical densities were measured at 490 nm using a Vmax Kinetic Microplate Reader (Molecular Devices). In most cases, the assay was performed in duplicate and the results were presented as a mean percent inhibition to the negative control±SE. The following formula was used to calculate the percent of inhibition: Inhibition (%)=(1−(ODo/OD))×100.
(§2) The compounds were tested against Z138, MM1S and 3T3 cells. The Z138 cell line is a mature B-cell acute lymphoblastic leukemia cell line derived from a patient with chronic lymphocytic leukemia. The MM1S cell line was established from the peripheral blood of a human multiple myeloma patient. 3T3 cells are standard fibroblast cells; they were originally isolated from Swiss mouse embryo tissue.

MM1S cells = assay: MTT cell proliferation assay, MM1S cells; settings: Homo sapiens, MM1.S, MM1S multiple myeloma cells, approximately 64-72 hours, 1 nM to 30 μM
Description: as §1, §2

3T3 cells = assay: MTT cell proliferation assay, 3T3 cells; settings: Mus musculus, NIH3T3, 3T3 fibroblast cells, approximately 64-72 hours, 1 nM to 30 μM
Description: as §1, §2

IC50 (MM1S cells)	Structure (SMILES)	IC50 (Z138 cells)	IC50 (3T3 cells)
0.1 to 5 µM	CC1(C)CN(S(=O)(=O)c2cccc(/C(=C\c3ccnc(-c4cc(C(F)(F)F)cc(C(F)(F)F)c4)n3)C(N)=O)c2)CCO1 [Compound 164, (E)-3-(2-(3,5-bis(trifluoromethyl)phenyl)pyrimidin-4-yl)-2-(3-((2,2-dimethylmorpholino)sulfonyl)phenyl)acrylamide]	> 30 µM	> 30 µM
> 30 µM	CS(=O)(=O)Nc1cccc(/C(=C\c2ccnc(-c3cc(C(F)(F)F)cc(C(F)(F)F)c3)n2)C(N)=O)c1 [Compound 144, (E)-3-(2-(3,5-bis(trifluoromethyl)phenyl)pyrimidin-4-yl)-2-(3-(methylsulfonamido)phenyl)acrylamide]	> 30 µM	> 30 µM
> 30 µM	NC(=O)/C(=C/c1ccnc(-c2cc(C(F)(F)F)cc(C(F)(F)F)c2)n1)c1ccc2cn[nH]c2c1 [Compound 140, (E)-3-(2-(3,5-bis(trifluoromethyl)phenyl)pyrimidin-4-yl)-2-(1H-indazol-6-yl)acrylamide]	0.1 to 5 µM	> 30 µM
< 0.1 µM	NC(=O)/C(=C/c1ccnc(-c2cc(C(F)(F)F)cc(C(F)(F)F)c2)n1)c1cncc2ccccc12 [Compound 158, (E)-3-(2-(3,5-bis(trifluoromethyl)phenyl)pyrimidin-4-yl)-2-(isoquinolin-4-yl)acrylamide]	< 0.1 µM	> 30 µM
0.1 to 5 µM	NC(=O)/C(=C/c1ccnc(-c2cc(C(F)(F)F)cc(C(F)(F)F)c2)n1)c1cc(F)nc(F)c1 [Compound 152, (E)-3-(2-(3,5-bis(trifluoromethyl)phenyl)pyrimidin-4-yl)-2-(2,6-difluoropyridin-4-yl)acrylamide]	0.1 to 5 µM	> 30 µM
0.1 to 5 µM	NC(=O)/C(=C/c1ccnc(-c2cc(C(F)(F)F)cc(C(F)(F)F)c2)n1)c1cccc(F)n1 [Compound 150, (E)-3-(2-(3,5-bis(trifluoromethyl)phenyl)pyrimidin-4-yl)-2-(6-fluoropyridin-2-yl)acrylamide]	0.1 to 5 µM	> 30 µM
5 to 30 µM	NC(=O)/C(=C/c1ccnc(-c2cc(C(F)(F)F)cc(C(F)(F)F)c2)n1)c1ccc(S(=O)(=O)N2CCCC2)cc1 [Compound 155, (E)-3-(2-(3,5-bis(trifluoromethyl)phenyl)pyrimidin-4-yl)-2-(4-(pyrrolidin-1-ylsulfonyl)phenyl)acrylamide]	> 30 µM	> 30 µM
> 30 µM	NC(=O)/C(=C/c1ccnc(-c2cc(C(F)(F)F)cc(C(F)(F)F)c2)n1)c1ccsc1Cl [Compound 143, (E)-3-(2-(3,5-bis(trifluoromethyl)phenyl)pyrimidin-4-yl)-2-(2-chlorothiophen-3-yl)acrylamide]	> 30 µM	> 30 µM
0.1 to 5 µM	NC(=O)/C(=C/c1ccnc(-c2cc(C(F)(F)F)cc(C(F)(F)F)c2)n1)c1ccc(S(=O)(=O)N2CCC(F)(F)C2)cc1 [Compound 157, (E)-3-(2-(3,5-bis(trifluoromethyl)phenyl)pyrimidin-4-yl)-2-(4-((3,3-difluoropyrrolidin-1-yl)sulfonyl)phenyl)acrylamide]	0.1 to 5 µM	> 30 µM
0.1 to 5 µM	NC(=O)/C(=C/c1ccnc(-c2cc(C(F)(F)F)cc(C(F)(F)F)c2)n1)c1ccncc1 [Compound 148, (E)-3-(2-(3,5-bis(trifluoromethyl)phenyl)pyrimidin-4-yl)-2-(pyridin-4-yl)acrylamide]	0.1 to 5 µM	> 30 µM
> 30 µM	CN1CCN(S(=O)(=O)c2cccc(/C(=C\c3ccnc(-c4cc(C(F)(F)F)cc(C(F)(F)F)c4)n3)C(N)=O)c2)CC1 [Compound 146, (E)-3-(2-(3,5-bis(trifluoromethyl)phenyl)pyrimidin-4-yl)-2-(3-((4-methylpiperazin-1-yl)sulfonyl)phenyl)acrylamide]	> 30 µM	> 30 µM

The remaining lines, values behind:

Structure (SMILES)	IC50 (MM1S cells)	IC50 (Z138 cells)	IC50 (3T3 cells)
NC(=O)/C(=C/c1ccnc(-c2cc(C(F)(F)F)cc(C(F)(F)F)c2)n1)c1cncc(F)c1 [Compound 121, (E)-3-(2-(3,5-bis(trifluoromethyl)phenyl)pyrimidin-4-yl)-2-(5-fluoropyridin-3-yl)acrylamide]	0.1 to 5 µM	> 30 µM	> 30 µM
CS(=O)(=O)c1ccc(/C(=C\c2ccnc(-c3cc(C(F)(F)F)cc(C(F)(F)F)c3)n2)C(N)=O)cc1 [Compound 127, (E)-3-(2-(3,5-bis(trifluoromethyl)phenyl)pyrimidin-4-yl)-2-(4-(methylsulfonyl)phenyl)acrylamide]	> 30 µM	> 30 µM	> 30 µM
Cc1noc(C)c1/C(=C\c1ccnc(-c2cc(C(F)(F)F)cc(C(F)(F)F)c2)n1)C(N)=O [Compound 124, (E)-3-(2-(3,5-bis(trifluoromethyl)phenyl)pyrimidin-4-yl)-2-(3,5-dimethylisoxazol-4-yl)acrylamide]	> 30 µM	> 30 µM	> 30 µM
NC(=O)/C(=C/c1ccnc(-c2cc(C(F)(F)F)cc(C(F)(F)F)c2)n1)c1ccc(S(=O)(=O)NC2CC2)cc1 [Compound 128, (E)-3-(2-(3,5-bis(trifluoromethyl)phenyl)pyrimidin-4-yl)-2-(4-(N-cyclopropylsulfamoyl)phenyl)acrylamide]	5 to 30 µM	5 to 30 µM	> 30 µM
Cc1ccc(/C(=C\c2ccnc(-c3cc(C(F)(F)F)cc(C(F)(F)F)c3)n2)C(N)=O)cc1F [Compound 118, (E)-3-(2-(3,5-bis(trifluoromethyl)phenyl)pyrimidin-4-yl)-2-(3-fluoro-4-methylphenyl)acrylamide]	> 30 µM	> 30 µM	> 30 µM
COC(=O)/C(=C/c1cncc(-c2cc(C(F)(F)F)cc(C(F)(F)F)c2)n1)c1cncnc1 [Compound 116, methyl (E)-3-(6-(3,5-bis(trifluoromethyl)phenyl)pyrazin-2-yl)-2-(pyrimidin-5-yl)acrylate]	5 to 30 µM	5 to 30 µM	> 30 µM
NC(=O)/C(Br)=C/c1cncc(-c2cc(C(F)(F)F)cc(C(F)(F)F)c2)n1 [Compound 103, (Z)-3-(6-(3,5-bis(trifluoromethyl)phenyl)pyrazin-2-yl)-2-bromoacrylamide]	0.1 to 5 µM	0.1 to 5 µM	> 30 µM
NC(=O)/C(=C/c1ccnc(-c2cc(C(F)(F)F)cc(C(F)(F)F)c2)n1)c1cccc(S(=O)(=O)N2CCOCC2)c1 [Compound 129, (E)-3-(2-(3,5-bis(trifluoromethyl)phenyl)pyrimidin-4-yl)-2-(3-(morpholinosulfonyl)phenyl)acrylamide]	> 30 µM	> 30 µM	> 30 µM
NC(=O)/C(=C\c1ccnc(-c2cc(C(F)(F)F)cc(C(F)(F)F)c2)n1)c1cncnc1 [Compound 107, (Z)-3-(2-(3,5-bis(trifluoromethyl)phenyl)pyrimidin-4-yl)-2-(pyrimidin-5-yl)acrylamide]	0.1 to 5 µM	5 to 30 µM	> 30 µM
NC(=O)/C(=C/c1ccnc(-c2cc(C(F)(F)F)cc(C(F)(F)F)c2)n1)c1ccc(OC(F)(F)F)cc1 [Compound 134, (E)-3-(2-(3,5-bis(trifluoromethyl)phenyl)pyrimidin-4-yl)-2-(4-(trifluoromethoxy)phenyl)acrylamide]	> 30 µM	> 30 µM	> 30 µM
CCOC(=O)/C=C/c1ccnc(-c2cc(C(F)(F)F)cc(C(F)(F)F)c2)n1 [Compound 105, ethyl (E)-3-(2-(3,5-bis(trifluoromethyl)phenyl)pyrimidin-4-yl)acrylate]	> 30 µM	> 30 µM	> 30 µM
O=C(O)/C(=C/c1nccc(-c2cc(C(F)(F)F)cc(C(F)(F)F)c2)n1)c1cncnc1 [Compound 109, (E)-3-(4-(3,5-bis(trifluoromethyl)phenyl)pyrimidin-2-yl)-2-(pyrimidin-5-yl)acrylic acid]	> 30 µM	> 30 µM	> 30 µM
CCOC(=O)C(Br)C(Br)c1ccnc(-c2cc(C(F)(F)F)cc(C(F)(F)F)c2)n1 (stereo not drawn) [Compound 106, ethyl 3-(2-(3,5-bis(trifluoromethyl)phenyl)pyrimidin-4-yl)-2,3-dibromopropanoate]	0.1 to 5 µM	0.1 to 5 µM	> 30 µM

Reference: patent US10709706B2, “Nuclear transport modulators and uses thereof” (Karyopharm Therapeutics Inc., priority 2015, dated 2020)
